Legend:
Assay type in all cases: cell-based
CRT1-RUT-C30 [1] = target: T1, CRT1-RUT-C30 (Trichoderma reesei, UniProt G0RGH7); experiment: radiolabelled sugar uptake in yeast; conditions: labelled compound; zero-trans uptake, 100 mM potassium phosphate pH 6.5, 28 °C
T1 construct: gene TRIREDRAFT_3405; full-length RUT-C30 version with longer N-terminus; codon-optimized synthetic gene, PGK1 promoter, centromeric plasmid in S. cerevisiae co-expressing N. crassa GH1-1

CRT1-RUT-C30 [2] = target: T1, CRT1-RUT-C30; experiment: inhibition of labelled cellobiose uptake in yeast; conditions: 5 mM labelled cellobiose, 25 mM inhibitor; pH 6.5, 28 °C
CDT-1 = target: T2, CDT-1 (Neurospora crassa, UniProt Q7SCU1); experiment: inhibition of labelled cellobiose uptake in yeast; conditions: 5 mM labelled cellobiose, 25 mM inhibitor; pH 6.5, 28 °C
T2 construct: full-length; PGK1 promoter, centromeric plasmid in S. cerevisiae co-expressing N. crassa GH1-1
T2 sequence (Q7SCU1 1-579): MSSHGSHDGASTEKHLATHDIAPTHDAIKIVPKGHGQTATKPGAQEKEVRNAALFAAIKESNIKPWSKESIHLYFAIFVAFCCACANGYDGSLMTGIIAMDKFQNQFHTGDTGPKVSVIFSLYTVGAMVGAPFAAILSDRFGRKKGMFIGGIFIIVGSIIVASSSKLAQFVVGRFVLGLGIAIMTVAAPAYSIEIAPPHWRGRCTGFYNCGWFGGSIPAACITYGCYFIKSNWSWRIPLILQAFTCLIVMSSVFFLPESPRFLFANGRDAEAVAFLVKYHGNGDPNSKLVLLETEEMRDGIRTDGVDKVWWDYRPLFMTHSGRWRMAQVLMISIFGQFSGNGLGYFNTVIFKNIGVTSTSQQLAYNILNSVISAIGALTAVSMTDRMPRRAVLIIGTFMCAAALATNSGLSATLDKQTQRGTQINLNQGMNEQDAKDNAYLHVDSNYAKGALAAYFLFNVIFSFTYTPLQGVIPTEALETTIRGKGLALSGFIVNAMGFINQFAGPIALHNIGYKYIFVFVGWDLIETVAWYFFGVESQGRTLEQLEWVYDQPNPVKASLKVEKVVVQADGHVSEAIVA

CDT-2 = target: T3, CDT-2 (Neurospora crassa, UniProt Q7SD12); experiment: radiolabelled lactose uptake in yeast, […] min; conditions: labelled compound; 5 mM lactose, pH 6.5, 28 °C
T3 construct: full-length; PGK1 promoter, centromeric plasmid in S. cerevisiae co-expressing N. crassa GH1-1
T3 sequence (Q7SD12 1-525): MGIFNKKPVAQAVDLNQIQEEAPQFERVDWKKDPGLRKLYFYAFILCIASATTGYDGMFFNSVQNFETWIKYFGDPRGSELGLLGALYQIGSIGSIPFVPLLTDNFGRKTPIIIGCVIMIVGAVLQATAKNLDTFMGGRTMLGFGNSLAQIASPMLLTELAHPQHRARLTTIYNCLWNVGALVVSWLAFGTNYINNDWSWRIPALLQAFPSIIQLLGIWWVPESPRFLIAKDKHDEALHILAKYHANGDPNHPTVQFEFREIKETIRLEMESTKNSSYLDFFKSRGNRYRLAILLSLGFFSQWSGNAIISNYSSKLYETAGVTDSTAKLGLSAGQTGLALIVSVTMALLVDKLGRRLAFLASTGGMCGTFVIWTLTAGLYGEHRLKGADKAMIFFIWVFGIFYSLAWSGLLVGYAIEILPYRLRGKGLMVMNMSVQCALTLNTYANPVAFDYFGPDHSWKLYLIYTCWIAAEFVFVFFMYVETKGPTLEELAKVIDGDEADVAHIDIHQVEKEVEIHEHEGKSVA

T1 sequence (G0RGH7 entry or part of it): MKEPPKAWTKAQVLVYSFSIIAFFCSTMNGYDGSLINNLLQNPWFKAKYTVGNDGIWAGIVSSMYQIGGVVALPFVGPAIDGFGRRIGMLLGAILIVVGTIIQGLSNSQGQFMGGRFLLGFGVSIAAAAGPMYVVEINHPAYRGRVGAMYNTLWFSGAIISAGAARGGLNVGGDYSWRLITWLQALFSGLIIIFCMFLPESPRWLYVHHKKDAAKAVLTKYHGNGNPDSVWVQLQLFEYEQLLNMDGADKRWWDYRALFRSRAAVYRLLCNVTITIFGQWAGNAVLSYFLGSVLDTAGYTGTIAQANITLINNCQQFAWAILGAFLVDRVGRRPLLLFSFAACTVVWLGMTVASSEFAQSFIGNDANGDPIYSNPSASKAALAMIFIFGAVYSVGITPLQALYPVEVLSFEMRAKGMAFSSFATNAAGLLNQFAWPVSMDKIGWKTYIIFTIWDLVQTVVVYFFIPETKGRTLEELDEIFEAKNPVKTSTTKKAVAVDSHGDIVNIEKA

SMILES | Km (CRT1-RUT-C30 [1]) [µM] | % inhibition at 25 mM (CRT1-RUT-C30 [2]) | % inhibition at 25 mM (CDT-1) | radiolabelled lactose uptake in yeast, 20 min (CDT-2)
OC[C@H]1O[C@@H](O[C@H]2[C@H](O)[C@@H](O)C(O)O[C@@H]2CO)[C@H](O)[C@@H](O)[C@@H]1O (some centres unmarked) [cellobiose] | 3.1 ± 0.7 |  |  | 
OC[C@H]1O[C@@H](O[C@H]2[C@H](O)[C@@H](O)[C@H](O[C@H]3[C@H](O)[C@@H](O)C(O)O[C@@H]3CO)O[C@@H]2CO)[C@H](O)[C@@H](O)[C@@H]1O (some centres unmarked) [cellotriose] |  | it was inhibited by cellobiose and to some extent by lactose and cellotriose | it was inhibited by cellobiose and to some extent by lactose and cellotriose | 
OC[C@H]1O[C@@H](O[C@H]2[C@H](O)[C@@H](O)C(O)O[C@@H]2CO)[C@H](O)[C@@H](O)[C@H]1O (some centres unmarked) [lactose] | 62.9 ± 27.4 |  |  | higher lactose uptake was seen for the strains which expressed CDT-1, CDT-2 or CRT1-RUT-C30
